Test [1] deals with N-Cadherin. Briefly: Western blot of N-Cadherin in infarcted hearts. It is filed as in vivo, mouse. The note with it: infarction core and border zone, 21 days after infarction. An excerpt:
(§1) Animals and Surgical procedures. Mice: Myocardial infarctions were produced in seventy C57BL/6J male mice at 16 weeks of age (25-30 g) by ligation of the left anterior descending (LAD) coronary artery as described (Garner et al., 2003). All animal protocols were reviewed and approved by the University of Texas Southwestern Medical School Institutional Animal Care Advisory Committee and were in compliance with the rules governing animal use as published by the NIH. Mice were sedated in an isoflurane chamber (5%) for 60 seconds until self-designed coaxial mask could be safely applied. The mask supplied continuous isoflurane (2.0%) and oxygen (98.0%) under positive pressure from a Harvard small animal respirator throughout the procedures. […] Effective doses of the peptides were calculated based on optimal in vitro cell migration effect and on biodistribution calculations of full length TB4 (Mora et al., 1997). […]
(§2) Western blot. […] The protein fraction was isolated from the interphase of the Trizol purification as recommended by the manufacturer; 10 μg of the total protein was loaded and analyzed by Western blot with protein-specific primary antibodies: VEGF, p-Marcks, p-Akt, and GAPDH (1:100) (Santa Cruz), Connexin43 (1:50) (Invitrogen), N-Cadherin (1:5000) (BD Biosciences) and pS368-Connexin43 (1:1000) (Cell Signaling Technology).

For test [2], the system named is myocardial cells. Briefly: Beating frequency of myocardial cells in embryonic cardiac explants on collagen gel. Format: cell-based, mouse. The note with it: 300 ng peptide or 100 ng TB4; normalized to PBS and TB4 controls (TB4 = 100.00). The protocol: In vitro embryonic cardiac cell migration assay. The outflow tract of the heart was dissected from E11.5 wild-type mouse embryos and placed on rat-tail collagen matrix (Roche) endothelial layer facing down as described (Bock-Marquette et al., 2004; Runyan and Markwald, 1983). After 10 h of attachment, three independent explants were incubated with 300 ng of peptide #1-17, 100 ng of TB4, or 3 μl PBS in […] OPTIMEM medium (Invitrogen/Gibco) respectively. Medium and protein were changed every two days. To monitor migration distance photos were taken daily using Nikon DXM1200F microscope at 4× magnification. Cell migration distance was quantified by ImageJ software (http at rsb.info.nih.gov/ij/) in three separate explants and three measurements for each treatment respectively. Beating frequency of myocardial cells was counted three times at 7-15 days of treatment. Calculations were normalized to PBS and TB4 treated positive and negative controls. After 15 days at 37° C. in 5% CO2, explants were fixed in 4% paraformaldehyde in PBS for 10 min at room temperature. Explants were stored at 4° C. in PBS for further immunocytochemical investigations.

The subject of test [3] is mature coronary vessels. Briefly: Immunohistochemistry, smooth muscle α-actin positive vessels at infarction border zone. Format: in vivo, mouse. An excerpt:
(§3) Animals and Surgical procedures. Mice: Myocardial infarctions were produced in seventy C57BL/6J male mice at 16 weeks of age (25-30 g) by ligation of the left anterior descending (LAD) coronary artery as described (Garner et al., 2003). All animal protocols were reviewed and approved by the University of Texas Southwestern Medical School Institutional Animal Care Advisory Committee and were in compliance with the rules governing animal use as published by the NIH. Mice were sedated in an isoflurane chamber (5%) for 60 seconds until self-designed coaxial mask could be safely applied. The mask supplied continuous isoflurane (2.0%) and oxygen (98.0%) under positive pressure from a Harvard small animal respirator throughout the procedures. Immediately after ligation mice were injected with 200 ng of peptide in […] or […] PBS in collagen intracardially in the infarction border, and with […] PBS intraperitoneally as described (Bock-Marquette et al., 2004). Intraperitoneal injections were repeated every three days after ligation. Effective doses of the peptides were calculated based on optimal in vitro cell migration effect and on biodistribution calculations of full length TB4 (Mora et al., 1997). The inventors administered buprenorphine (0.05 mg/kg) for post-operative pain control. Hearts were removed 1, 14 and 21 days after ligation and processed for further investigations.
Immunohistochemistry. Adult mouse cardiac tissue was fixed in 4% paraformaldehyde and sections were analyzed by immunohistochemistry. Hearts were sectioned at eight levels from the base to the apex. Serial sections were immunostained with primary antibodies against Pecam-1 and Wt-1 (1:50) (Santa Cruz), Smooth muscle a-actin (1:220) (Sigma), Sarcomeric a-actinin (1:200) (Sigma), Connexin43 (1:200) (Invitrogen), pS368-Connexin43 (1:200) (Cell Signaling Technology) as recommended by the manufacturer. Terminal deoxynucleotidyl transferase dUTP nick end labeling (TUNEL) assay was performed using In Situ Cell Detection kit (Roche). Number of sm a-actin positive capillaries and Wt-1 positive cells were counted at the infarction border zone in high power photographs at all levels of the sections in three peptide, TB4 and PBS treated hearts respectively.

Test [4] deals with full thickness wound. The note with it: cited from earlier work; for increase of epithelial layer restoration in the wound: topical or injected, compared to untreated.
The subject of test [5] is keratinocytes. As to conditions: within four to five hours after treatment, compared to untreated keratinocytes; cited from earlier work.
The test system of test [6] is Wt-1 positive cardiac progenitors. The test is described as follows: Immunohistochemistry, Wt-1 positive progenitor cells at infarction border. It is filed as in vivo, mouse. As to conditions: border of the infarction, 21 days / three weeks after peptide injections.
Excerpt: as §1
Immunohistochemistry. Adult mouse cardiac tissue was fixed in 4% paraformaldehyde and sections were analyzed by immunohistochemistry. […] Number of sm a-actin positive capillaries and Wt-1 positive cells were counted at the infarction border zone in high power photographs at all levels of the sections in three peptide, TB4 and PBS treated hearts respectively.

Test [7] concerns Akt. The test is described as follows: Western blot anti-phosphoS473-Akt on heart lysates after coronary ligation. It is filed as in vivo, mouse. As to conditions: 24 hours after treatment.
Excerpt: as §1, §2

For test [8], the system named is C57BL/6J male mice after coronary ligation. The test is described as follows: Myocardial infarction by LAD coronary ligation in adult mice: echocardiography, scar volume, myocyte size. It is filed as in vivo, mouse.
Excerpt: as §3
Analysis of cardiac function by echocardiography: Echocardiograms to assess systolic function were performed using M-mode and 2-dimensional measurements as described previously (Garner et al., 2003). The measurements represented the average of six selected cardiac cycles from at least two separate scans performed in random-blind fashion with papillary muscles used as a point of reference for consistency in level of scan. End diastole was defined as the maximal left ventricle (LV) diastolic dimension and end systole was defined as the peak of posterior wall motion. Single outliers in each group were omitted for statistical analysis. Fractional shortening (FS), a surrogate of systolic function, was calculated from LV dimensions as follows: FS=[(EDD−ESD)/EDD]×100%. Ejection fraction (EF) was calculated as follows: EF=[(edd^3−esd^3)/edd^3]×100%. EDD, end diastolic dimension; ESD, end systolic dimension.
Calculation of scar volume and myocyte size: Scar volume was calculated after Masson's trichrome staining in six sections through the heart of each mouse using Openlab 3.03 software (Improvision) similar to previously described (Bock-Marquette et al., 2004). Percent area of collagen deposition was measured on each section in blinded fashion and averaged for each mouse.

In test [9] the test system is pS368-Cx43. Briefly: Western blot of pS368-Connexin43 in infarcted hearts. Format: in vivo, mouse. The note with it: ischemic border, 21 days, compared to PBS.
Excerpt: as §1, §2

Setting [10] is: 21 days after ligation, compared to PBS.
Where [11] appears, read: three weeks after ligation, intracardiac once plus intraperitoneal every three days.

This is an account of results in patent US20110251128A1, “THYMOSIN Beta4 PEPTIDES PROMOTE TISSUE REGENERATION” (The Board of Regents of the University of Texas System, priority 2010, published 2011).

Entries after “also recorded” stand apart in the source; their conditions may differ. Where two headings read alike, the source gives them in different places.

As to Thymosin β4 [TB4], the N-Cadherin expression result in [1] is given as “slight, but non-significant increase; also recorded: slightly upregulated”. The “frequency of myocardial beating” value in test [2] is reported as 100.00+/−5.03 beats/75 sec. The “number of mature, smooth muscle α-actin positive vessels” value in [3] (21 days / three weeks, compared to PBS) was “increase the number of mature, smooth muscle a-actin positive vessels”. Further, in test [3] (two weeks after treatment, compared to PBS (FIG. 10)), the “number of mature coronary vessels” value is “increases”. In [4] (by day four), the “increase of epithelial layer restoration in the wound” value is 42%. Besides, the “increase of epithelial layer restoration in the wound” value in test [4] (by day seven) is recorded as 61%. In addition, the wound contraction entry in test [4] (compared to untreated wounds) is given as “more than 11%”. Also, in test [4] (rat, in vivo), the “collagen deposition in the wound and angiogenesis” value is “stimulated collagen deposition”. For the same substance, the “increase of keratinocyte migration” value in test [5] was “two to threefold”. Also, in test [6], the “number of Wt-1 positive cells” value is listed as “increased significantly; also recorded: significant increase”. Further, in [7], the “Akt activation (phosphoS473-Akt)” value was “increased Akt activation”. Further, in test [8] (setting [10]), the “myocyte diameter / size in the ischemic area” value is “increased myocyte diameter; also recorded: significantly increase the size of surviving cardiomyocytes” and the “scar (Masson's trichrome staining)” value is given as “significant reduction of the scar”. Besides, in [8] (after three weeks), the “end systolic diameter (ESD)” value is given as “significantly decreased”. In addition, in [8] (setting [11]), the “calculated ejection fraction (EF)” value is 50.9+/−3.6% and the “mean fractional shortening (FS)” value was 87.4+/−2.6%. Also, in test [9], the “pS368-Cx43 (Cx43 phosphorylation)” value is given as “significantly lower; also recorded: decrease in Cx43 phosphorylation”.
